Values belong to the compound of their own block, whether it stands above or below them.
What was measured:
NCI-H460 = test: NCI screen, growth of human tumor cells: Non-Small Cell Lung NCI-H460; type: cell-based; conditions: NCI-H460 (Non-Small Cell Lung), 10^−4 molar
Procedure, shortened: (§1)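 Percent-growth read-out from the NCI cancer cell screen; data annotated by cancer type and molar concentration, ≥60 points per compound.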

SNB-19 = test: NCI screen, growth of human tumor cells: CNS Cancer SNB-19; type: cell-based; conditions: SNB-19 (CNS Cancer), 10^−4 molar
Procedure, shortened: as §1

SNB-75 = test: NCI screen, growth of human tumor cells: CNS Cancer SNB-75; type: cell-based; conditions: SNB-75 (CNS Cancer), 10^−4 molar
Procedure, shortened: as §1

[1] = system: lymphocytic leukemia, lymphoid leukemia, melanocarcinoma, human breast xenograft and ovarian carcinoma; conditions: disclosure of U.S. Pat. No. 4,950,768; cited from earlier work
CAKI-1 = test: NCI screen, growth of human tumor cells: Renal Cancer CAKI-1; type: cell-based; conditions: CAKI-1 (Renal Cancer), 10^−4 molar
Procedure, shortened: as §1

CCRF-CEM = test: NCI screen, growth of human tumor cells: Leukemia CCRF-CEM; type: cell-based; conditions: CCRF-CEM (Leukemia), 10^−4 molar
Procedure, shortened: as §1

UACC-62 = test: NCI screen, growth of human tumor cells: Melanoma UACC-62; type: cell-based; conditions: UACC-62 (Melanoma), 10^−4 molar
Procedure, shortened: as §1

ACHN = test: NCI screen, growth of human tumor cells: Renal Cancer ACHN; type: cell-based; conditions: ACHN (Renal Cancer), 10^−4 molar
Procedure, shortened: as §1

MOLT-4 = test: NCI screen, growth of human tumor cells: Leukemia MOLT-4; type: cell-based; conditions: MOLT-4 (Leukemia), 10^−4 molar
Procedure, shortened: as §1

K562 = test: NCI screen, growth of human tumor cells: Leukemia K562; type: cell-based; conditions: K562 (Leukemia), 10^−4 molar
Procedure, shortened: as §1

HOP-92 = test: NCI screen, growth of human tumor cells: Non-Small Cell Lung HOP-92; type: cell-based; conditions: HOP-92 (Non-Small Cell Lung), 10^−4 molar
Procedure, shortened: as §1

786-0 = test: NCI screen, growth of human tumor cells: Renal Cancer 786-0; type: cell-based; conditions: 786-0 (Renal Cancer), 10^−4 molar
Procedure, shortened: as §1

HCT-15 = test: NCI screen, growth of human tumor cells: Colon Cancer HCT-15; type: cell-based; conditions: HCT-15 (Colon Cancer), 10^−4 molar
Procedure, shortened: as §1

NCI-H23 = test: NCI screen, growth of human tumor cells: Non-Small Cell Lung NCI-H23; type: cell-based; conditions: NCI-H23 (Non-Small Cell Lung), 10^−4 molar
Procedure, shortened: as §1

UACC-257 = test: NCI screen, growth of human tumor cells: Melanoma UACC-257; type: cell-based; conditions: UACC-257 (Melanoma), 10^−4 molar
Procedure, shortened: as §1

OVCAR-8 = test: NCI screen, growth of human tumor cells: Ovarian Cancer OVCAR-8; type: cell-based; conditions: OVCAR-8 (Ovarian Cancer), 10^−4 molar
Procedure, shortened: as §1

M14 = test: NCI screen, growth of human tumor cells: Melanoma M14; type: cell-based; conditions: M14 (Melanoma), 10^−4 molar
Procedure, shortened: as §1

LOXIMVI = test: NCI screen, growth of human tumor cells: Melanoma LOXIMVI; type: cell-based; conditions: LOXIMVI (Melanoma), 10^−4 molar
Procedure, shortened: as §1

MCF7/ADR-RES = test: NCI screen, growth of human tumor cells: Breast Cancer MCF7/ADR-RES; type: cell-based; conditions: MCF7/ADR-RES (Breast Cancer), 10^−4 molar
Procedure, shortened: as §1

MDA-MB-435 = test: NCI screen, growth of human tumor cells: Breast Cancer MDA-MB-435; type: cell-based; conditions: MDA-MB-435 (Breast Cancer), 10^−4 molar
Procedure, shortened: as §1

MDA-MB-231/ATCC = test: NCI screen, growth of human tumor cells: Breast Cancer MDA-MB-231/ATCC; type: cell-based; conditions: MDA-MB-231/ATCC (Breast Cancer), 10^−4 molar
Procedure, shortened: as §1

SF-295 = test: NCI screen, growth of human tumor cells: CNS Cancer SF-295; type: cell-based; conditions: SF-295 (CNS Cancer), 10^−4 molar
Procedure, shortened: as §1

SF-268 = test: NCI screen, growth of human tumor cells: CNS Cancer SF-268; type: cell-based; conditions: SF-268 (CNS Cancer), 10^−4 molar
Procedure, shortened: as §1

HCT-116 = test: NCI screen, growth of human tumor cells: Colon Cancer HCT-116; type: cell-based; conditions: HCT-116 (Colon Cancer), 10^−4 molar
Procedure, shortened: as §1

MCF 7 = test: NCI screen, growth of human tumor cells: Breast Cancer MCF 7; type: cell-based; conditions: MCF 7 (Breast Cancer), 10^−4 molar
Procedure, shortened: as §1

SK-MEL-5 = test: NCI screen, growth of human tumor cells: Melanoma SK-MEL-5; type: cell-based; conditions: SK-MEL-5 (Melanoma), 10^−4 molar
Procedure, shortened: as §1

HT29 = test: NCI screen, growth of human tumor cells: Colon Cancer HT29; type: cell-based; conditions: HT-29, 10^−4 molar
Procedure, shortened: as §1

DU-145 = test: NCI screen, growth of human tumor cells: Prostate Cancer DU-145; type: cell-based; conditions: DU-145 (Prostate Cancer), 10^−4 molar
Procedure, shortened: as §1

OVCAR-3 = test: NCI screen, growth of human tumor cells: Ovarian Cancer OVCAR-3; type: cell-based; conditions: OVCAR-3 (Ovarian Cancer), 10^−4 molar
Procedure, shortened: as §1

SK-MEL-2 = test: NCI screen, growth of human tumor cells: Melanoma SK-MEL-2; type: cell-based; conditions: SK-MEL-2 (Melanoma), 10^−4 molar
Procedure, shortened: as §1

human cancer cells = test: NCI screen summary over the cancers tested (negative growth of human cancer cells); type: cell-based; conditions: 10^−4 M conc.; cancers with negative growth / cancers tested
Experimental: (§2) In the NCI screening process, each compound was tested and described by a minimum of 60 data points. The test data include, but are not limited to the type of cancer, the molar concentration used in the screen, and the percent growth of the cancer. In some cases, NMR and elemental analysis were used for structural assignment.
The derivatives in the tables are grouped using the same category as in the tables 1-6.

EKVX = test: NCI screen, growth of human tumor cells: Non-Small Cell Lung EKVX; type: cell-based; conditions: EKVX (Non-Small Cell Lung), 10^−4 molar
Procedure, shortened: as §1

IGROVI = test: NCI screen, growth of human tumor cells: Ovarian Cancer IGROVI; type: cell-based; conditions: IGROVI (Ovarian Cancer), 10^−4 molar
Procedure, shortened: as §1

[2] = Water solubility noted at isolation; type: physicochemical; conditions: observation on the isolated product
Experimental: To a solution of 0.8 g of ethylene bromomethanedisulfonate (91-5) in 50 mL of glyme with 0.2 g of NaH was added followed by 0.6 g of the anhydride of 1,2-ethanedisulfonic acid. After 24 hrs, the solvent was removed and the residue taken up in 10 mL of acetone to give 0.5 g of water soluble 96-13.
To a solution of 0.58 g of ethylene methanedisulfonate in 50 mL of glyme and 0.2 g of NaH was added 0.65 g of 8-quinolinesulfonyl chloride. After 3 hrs., the solution was filtered, and the solid was washed with CH2Cl2 and dried overnight to give 1.155 g of a mixture of NaCl, Na2CO3, and product. A sample was H2O soluble and the calculated yield, based on assumption of the NaCl and Na2CO3, was 0.848 g (71%) of 97-4.

OVCAR-4 = test: NCI screen, growth of human tumor cells: Ovarian Cancer OVCAR-4; type: cell-based; conditions: OVCAR-4 (Ovarian Cancer), 10^−4 molar
Procedure, shortened: as §1

NCI-H522 = test: NCI screen, growth of human tumor cells: Non-Small Cell Lung NCI-H522; type: cell-based; conditions: NCI-H522 (Non-Small Cell Lung), 10^−4 molar
Procedure, shortened: as §1

KM12 = test: NCI screen, growth of human tumor cells: Colon Cancer KM12; type: cell-based; conditions: KM12 (Colon Cancer), 10^−4 molar
Procedure, shortened: as §1

SF-539 = test: NCI screen, growth of human tumor cells: CNS Cancer SF-539; type: cell-based; conditions: SF-539 (CNS Cancer), 10^−4 molar
Procedure, shortened: as §1

U-251 = test: NCI screen, growth of human tumor cells: CNS Cancer U-251; type: cell-based; conditions: U-251 (CNS Cancer), 10^−4 molar
Procedure, shortened: as §1

MALME-3M = test: NCI screen, growth of human tumor cells: Melanoma MALME-3M; type: cell-based; conditions: MALME-3M (Melanoma), 10^−4 molar
Procedure, shortened: as §1

SN12C = test: NCI screen, growth of human tumor cells: Renal Cancer SN12C; type: cell-based; conditions: SN12C (Renal Cancer), 10^−4 molar
Procedure, shortened: as §1

MDA-N = test: NCI screen, growth of human tumor cells: Breast Cancer MDA-N; type: cell-based; conditions: 10^−4 molar
Experimental: as §2

HCC-2998 = test: NCI screen, growth of human tumor cells: HCC-2998 (listed under Non-Small Cell Lung); type: cell-based; conditions: HCC-2998 (under Non-Small Cell Lung), 10^−4 molar
Procedure, shortened: as §1

melting point: 176 to 180 °C
Structure (SMILES): O=S1(=O)CS(=O)(=O)OCCO1 [NSC 348948, ethylene methanedisulfonate]
percent of growth of human tumor cells (NCI-H460): 6%
percent of growth of human tumor cells (SNB-19): 18%
percent of growth of human tumor cells (SNB-75): 18%
effectiveness in the treatment of mice cancers [1]: effective
percent of growth of human tumor cells (CAKI-1): −6%
percent of growth of human tumor cells (CCRF-CEM): −3%
percent of growth of human tumor cells (UACC-62): −13%
percent of growth of human tumor cells (ACHN): 22%
percent of growth of human tumor cells (MOLT-4): 5%
percent of growth of human tumor cells (K562): 5%
percent of growth of human tumor cells (HOP-92): 6%
percent of growth of human tumor cells (786-0): 24%

Structure (SMILES): O=S1(=O)OCCOS(=O)(=O)C1c1cccc2cccnc12 [NSC 698122, ethylene 8-quinolylmethanedisulfonate]
percent of growth of human tumor cells (HCT-15): 18%
percent of growth of human tumor cells (NCI-H23): 27%
percent of growth of human tumor cells (UACC-257): 13%
percent of growth of human tumor cells (OVCAR-8): 19%
percent of growth of human tumor cells (M14): 10%
percent of growth of human tumor cells (LOXIMVI): −43%
percent of growth of human tumor cells (MCF7/ADR-RES): −5%
percent of growth of human tumor cells (MDA-MB-435): 19%
percent of growth of human tumor cells (MDA-MB-231/ATCC): 26%
percent of growth of human tumor cells (SF-295): 18%
percent of growth of human tumor cells (NCI-H460): −40%
percent of growth of human tumor cells (SF-268): 24%
percent of growth of human tumor cells (HCT-116): 16%
percent of growth of human tumor cells (MCF 7): 12%
percent of growth of human tumor cells (SK-MEL-5): 15%
% Growth (HT29): −64%
percent of growth of human tumor cells (DU-145): 2%
percent of growth of human tumor cells (OVCAR-3): 25%
percent of growth of human tumor cells (SK-MEL-2): 24%
Percentage of cancers showing negative growth cancers tested (human cancer cells): 10^−4 M conc. = 8/31 = 25.8%
percent of growth of human tumor cells (EKVX): 28%
percent of growth of human tumor cells (IGROVI): 17%
percent of growth of human tumor cells (UACC-62): −46%
water solubility [2]: H2O soluble
percent of growth of human tumor cells (OVCAR-4): 30%
percent of growth of human tumor cells (NCI-H522): −40%
percent of growth of human tumor cells (KM12): 7%
percent of growth of human tumor cells (SF-539): 30%
percent of growth of human tumor cells (U-251): −53%
percent of growth of human tumor cells (MALME-3M): 29%
percent of growth of human tumor cells (SN12C): 28%
percent of growth of human tumor cells (MDA-N): 10%
percent of growth of human tumor cells (HCC-2998): −12%

From patent US8124793B2, “Derivatives of ethylene methanedisulfonate as cancer chemotherapeutic agents” (priority 2007, dated 2012)
